Where two headings read alike, the source gives them in different places.
Experiments:
[1] = test system: spontaneous hypertensive rat; test: Antihypertensive activity in the spontaneous hypertensive rat, indirect tail cuff method; assay type: in vivo; conditions: at 50 mg/kg, p.o.; treated orally for three days, measured on the third day
Experimental: Compounds of the present invention are also useful as antihypertensive agents due to their ability to depress blood pressure in mammals. Antihypertensive activity is measured in the spontaneous hypertensive rat by the indirect tail cuff method described in "Methods in Pharmacology", A. Schwartz, Ed., Vol. I, Appleton-Century Crofts, New York, N.Y., 1971, p. 135. In this procedure a group of five animals are treated orally for three days with the test compound in relation to a control group of the same number. The drop in blood pressure is measured on the third day following administration. The antihypertensive activities of some of the compounds, expressed as a decrease in mean arterial blood pressure (in mm Hg), are given in Table 2.

[2] = test system: 2-phenyl-1,4-benzoquinone-induced writhing; test: 2-phenyl-1,4-benzoquinone-induced writhing test in mice (analgesic activity, phenylquinone writhing); assay type: in vivo; conditions: Mus musculus, sc, read-out: ED50 (Analgesic Activity, Phenylquinone Writhing)
Description: Compounds of this invention having formula I are useful as analgesic agents due to their ability to alleviate pain in mammals. […] Exptl. Biol. Med. […], 729 (1957)].

[3] = biological target: α1-adrenergic receptor; test: [3H]-WB4101: α1-adrenergic receptor binding in rat brain; conditions: rat brain membranes minus cerebella, 0.5 nM 3H-WB4101, pH 7.7, 15 minutes; read-out: [3H]-WB4101: α1-Adrenergic Receptor (IC50) Antagonist Activity
Experimental: RECEPTOR BINDING IN RAT BRAIN
This in vitro [^3 H]-WB4101 receptor binding assay quantitates the primary blood pressure lowering effects through α1 -receptor blockade. […] WB4101 labels an antagonist binding site on the α1 -adrenoceptor, since it is preferentially displaced by antagonists while α-noradrenergic agonists preferentially displace the ^3 H-agonists
57.2 g Tris HCl 16.2 g Tris base q.s. to 1 liter (0.5M Tris buffer, pH 7.7 at 25° C.).
Make a 1:10 dilution in distilled H2 O (0.05M Tris Buffer, pH 7.7)
[Phenoxy-3-^3 H(N)]-WB4101, (2-(2,6-dimethoxyphenoxyethyl)aminomethyl-1,4-benzodioxane, (20-25 Ci/mmol) is obtained from New England Nuclear.
L-norepinephrine bitartrate is obtained from Sigma Chemical Co.
A 10 mM stock solution of norepinephrine is made up in 0.01N HCl and 20 micro liter added to three tubes to determine nonspecific binding. This yields a final concentration of 100 micro liter in the assay.
For most assays, a 1 mM stock solution is made up in a suitable solvent and serially diluted, such that the final concentration in the assay ranges from 10^-5 to 10^-8 M. Seven concentrations are usually used for each assay.
Male Wistar rats (100-150 g) are killed by decapitation and their brains rapidly removed. […]
Sample tubes are kept on ice for additions, then vortexed and incubated for 15 minutes at 15° C. […] The filters are counted in 10 ml of liquid scintillation cocktail. […]

Structure (SMILES)	Pressure Drop (decrease in mean arterial blood pressure) [1] [mmHg]	ED50 ([2]; mice) [mg/kg]	IC50 [3] [nM]	ED50 [2] [mg/kg]
COc1ccc([C@@H]2Sc3ccccc3N(CCN(C)C)C(=O)[C@@H]2OC(C)=O)cc1 [Diltiazem, reference compound]	39			
COc1cc2onc(CCCN3CCN(c4ccccc4OC)CC3)c2cc1OC [3-[3-[4-(2-methoxyphenyl)-1-piperazinyl]propyl]-5,6-dimethoxy-1,2-benzisoxazole]	68	1.7		
COc1cc2onc(CCCNCCc3ccccc3)c2cc1OC.Cl [N-(2-phenylethyl)-5,6-dimethoxy-1,2-benzisoxazole-3-propanamine hydrochloride]	32		83	
COc1cc2onc(CCCNCCc3ccc(F)cc3)c2cc1OC.Cl [N-[2-(4-fluorophenyl)ethyl]-5,6-dimethoxy-1,2-benzisoxazole-3-propanamine hydrochloride]		3.8		
CC(C)=CCN1CCC2(C)c3cc(O)ccc3CC1C2C (stereo not drawn) [pentazocine, reference compound]				1.3
COc1cc2onc(CCCN(C)CCc3ccccc3)c2cc1OC.O=C(O)C(=O)O [N-methyl-N-(2-phenylethyl)-5,6-dimethoxy-1,2-benzisoxazole-3-propanamine oxalate]		13.6	67	
